Columns and labels:
4T1 cells [1] = test: 4T1-shNC or 4T1-shRab27A tumors in Balb/c nude mice; format: in vivo, mouse; details: 30 mg/kg, daily, oral gavage
Description: Inventors also implant control or Rab27a-knockout 4T1 cells into the fat pads of female Balb/c nude mice. The mice are randomly divided (n=4 per group) and treated with either buffer or 6J1 (30 mg/kg, daily) via oral gavage.

PD-L1 [2] = test: Plasma membrane PD-L1 level in HeLa cells (flow cytometry, confocal imaging); format: cell-based; details: 1 μM, 24 h
Description: Next, inventors assess if 6J1 can compromise PD-L1 trafficking. PDL1-GFP stable expressing HeLa cells are treated with or without 6J1 (1 μM) for 24 h. Cells are fixed and stained with Rab5 or EEA1. Their quantifications of the colocalization are shown in FIGS. 4d and 4e, respectively. […] Inventors thus further quantify cell membrane PD-L1 levels in live cells treated with or without 6J1 by flow cytometry or confocal imaging.
Moreover, ATG5- or LC3-knockout HeLa cells are treated with or without 6J1 (1 μM) for 24 h. The supernatant is collected, and the concentration of the extracellular vesicle is determined using a Nanosight nanoparticle analyzer. The exosomes are also collected and subjected to western blot analysis of the EVs marker and PD-L1 in FIG. 7a. The live cells are also labeled with an anti-PD-L1 antibody in FIG. 7b and subjected to flow cytometry analysis in FIG. 7c. […] In addition, inventors assess whether other autophagy-related genes, e.g., ATG4B, ATG7, Beclin1, and Vps34 are involved in 6J1-mediated exosomal PD-L1 secretion. ATG4B-, ATG7-, Beclin1-, or VPS34-knockout HeLa cells are treated with or without 6J1 (1 μM) for 24 h. The supernatant is collected, and the concentration of extracellular vesicle is determined using a Nanosight nanoparticle analyzer. The exosomes are also collected and subjected to western blot analysis of the EVs marker and PD-L1 in FIG. 7d. The live cells are also labeled with an anti-PD-L1 antibody and subjected to flow cytometry analysis in FIG. 7e.

4T1 cells [3] = test: Chemokine level in supernatant of 4T1 cells; format: cell-based, mouse; details: in vitro, 1 μM
[4] = Repeated-dose oral gavage toxicity in rats, up to 7 days; details: rat, in vivo
Description: Inventors also evaluate the toxicity profile following oral gavage administration of 6J1 at dose levels of 0 (vehicle), 150, 450, and 1000 mg/kg once daily for up to 7 consecutive days to rats. Rats of the 300 mg/kg group are tested separately from other groups (showing higher initial weight than other groups), and rats of 450 and 1000 mg/kg groups are terminated on day 4 due to several clinical findings.

4T1 cells [5] = test: Cell viability of 4T1 cells, MTT assay; format: cell-based; details: ≤1 μM, 24 h or 48 h
Description: The inventors also test the cytotoxicity of 6J1 in several cancer cell lines, HeLa, A549 and MDA-MB-231 cell lines. Cells are grown in 96-well plates in triplicate and treated with or without 6J1 at the concentrations of 0, 0.01, 0.1, 1, 10 and 100 μM indicated for 24 h or 48 h. They are then stained with propidium iodide (PI) or Hochest 33342 to measure the cell death ratio and cell number, respectively. […] Inventors also test the cytotoxicity of 6J1 in 4T1 cells. 4T1 cells are plated in 96-well plates in triplicate and treated with or without 6J1 at the concentrations of 0, 0.01, 0.1, 1, 5, 10, 20, 40, 80 and 100 μM indicated for 24 h or 48 h. The cell viability was then quantified via the MTT assay.

PD-L1 [6] = test: Plasma membrane PD-L1 level in 4T1 cells (flow cytometry); format: cell-based, mouse; details: 1 μM
Description: The current PD-L1 and PD1 therapies apply PD-L1 or PD1 monoclonal antibodies to block the PD-L1/PD1 signaling, which results in cytotoxic T cells recognizing and killing the tumor cells. […] First, flow cytometry-based quantification of plasma membrane levels of PD-L1 in 4T1 cells treated with or without 6J1 (1 μM) for 24 h. 4T1 cells are treated with or without 6J1 (1 μM) for 24 h. The supernatant is collected, and the concentration of extracellular vesicle is determined using a Nanosight nanoparticle analyzer in FIG. 8b. The exosomes are also collected and subjected to western blot analysis of the EVs marker and PD-L1 in FIG. 8c.
Therefore, it is possible that the increased exosomal PD-L1 secretion induced by 6J1 may still suppress the tumor-infiltrating T cell cytotoxicity in vivo, even though 6J1 reduces the cell surface expression level of PD-L1 on the tumor cells. To evaluate the role of exosomal PD-L1 in the tumor microenvironment and tumor progression in mice, inventors knock out Rab27a in 4T1 cells to inhibit the secretion of exosomes. 4T1-shNC or 4T1-shRab27A cells are treated with or without 6J1 (1 μM). The supernatant is collected, and the concentration of extracellular vesicle is determined using a Nanosight nanoparticle analyzer. […] Inventors analyze the plasma membrane levels of PD-L1 in 4T1-shNC or 4T1-shRab27A cells treated with or without 6J1 (1 μM). […] Next, control or Rab27a-knockout 4T1 cells are orthotopically transplanted into syngeneic fat pads of female Balb/c. The mice are randomly divided (n=5 per group) and treated with either buffer or 6J1 (30 mg/kg, daily) via oral gavage. […] Inventors also perform the immunostaining of CD8 and Granzyme B in the tumor sections. […] Since enhanced antitumor immunity leads to increased apoptosis in tumors, inventors assess the levels of cleaved caspase3 (CCA3), one of the markers of apoptosis, in tumor sections as well.
Finally, inventors assess the combinatory effects of 6J1 with GW4869, an exosome secretion inhibitor, in the aforementioned orthotopic mammary carcinoma mouse models. […]

LL/2 cells = test: LL/2 mouse lung cancer model in C57BL mice; format: in vivo; details: 30 mg/kg, daily, oral gavage, 4 weeks
Description: C57BL mice (n=5) are injected subcutaneously with LL/2 cells. After tumors reach around 5 mm in size, the mice are treated with either buffer (PBS) or 6J1 (30 mg/kg, daily, oral gavage) for 4 weeks. After 4 weeks, primary tumors and lungs are collected for analysis (FIGS. 16a and 16b). Tumor volumes are measured daily (p<0.001) in FIG. 16c.

Structure (SMILES): OCCOCCN(c1ccccc1)c1nc(N/N=C/c2cccc(I)c2)nc(N2CCOCC2)n1 [Compound 6J1]
- anti-cancer effect of 6J1 or 6J1 with Rab27a knockout in immunocompromised mice (4T1 cells [1]): dramatically abolished
- 6J1-mediated decrease in the level of PD-L1 at the cell surface (PD-L1 [2]; ATG4B-, ATG7-, Beclin1- or VPS34-knockout HeLa cells): does not affect
- 6J1-induced decrease in the level of PD-L1 at the cell surface (PD-L1 [2]; ATG5- or LC3B-knockout HeLa cells): Neither ATG5 nor LC3B knockout impairs
- expression of PD-L1 on the surface of cells (PD-L1 [2]; HeLa cells): significantly reduces the expression of PD-L1 on the surface of cells
- secretion of various chemokines from 4T1 cells (4T1 cells [3]): markedly induces the secretion of various chemokines
- findings at 450 and 1000 mg/kg [4]: severe clinical findings
- therapeutic window in experimental animals [4]: at least 10 fold
- clinical signs at 300 mg/kg ([4]; po, 300 mg/kg): soft feces, hunched posture, and reduced feces
- finding at 1000 mg/kg ([4]; po, 1000 mg/kg): mortality
- dose levels not tolerated on repeated daily dosing ([4]; po, 4 days): ≥ 450 mg/kg
- repeated daily dosing considered tolerated up to ([4]; po, 7 days): up to 300 mg/kg
- proliferation of 4T1 cells (4T1 cells [5]): little effect
- 6J1-induced decrease of cell surface PD-L1 levels (PD-L1 [6]; 4T1-shRab27A cells): does not influence the 6J1-induced decrease of cell surface PD-L1 levels
- level of cell surface PD-L1 (PD-L1 [6]; 4T1 cells, 24 h): decreases the level of cell surface PD-L1
- tumor growth of mouse lung cancer (LL/2 cells): significantly inhibits the tumor growth of mouse lung cancer
